Patent publication US11672786B2, “Methods of treating diseases associated with repeat instability” (The Hospital for Sick Children, priority 2016, dated 2023)

Test system: CASK, HTT (normal allele), Mfd15 and TBP loci in HD fibroblasts
Assay: repeat-tract lengths of non-expanded loci in HD fibroblasts
Format: cell-based, human
Text: Scale bar represents 20 μm. […] The cell viability was estimated with WST-1 assays. Values represent the means of three independent measures±SD. […] Error bars indicate the SD of triplicate experiments. […] The dashed line indicates the peak CAG size. Allele lengths are grouped in bins spanning 10 repeats. More than 230 alleles were sized per group.
FIG. 12 are representative data showing ultra-sensitive small-pool PCR for the non-expanded CAG/CTG repeat length of CASK in HD primary fibroblast cells (Panel A of FIG. 12) and HT1080-(CAG)850 cells (Panel B of FIG. 12). […] Repeat lengths were analyzed by Agilent BioAnalyzer.
Genomic DNA was extracted from HT1080-(CAG)850 clones and HD primary fibroblasts using the Gentra Puregene Cell Kit (Qiagen, Valencia, Calif.). […] At least 50 alleles were analyzed for each of the three experiments (more than 150 alleles for a total study). […] For the histograms in FIGS. 4D, 4E, 10, 11, 5B, 5D, 5E, 14 and 15B, the Y-axis, “% of repeat population” was calculated by determining the proportion of >50 individual small-pool PCR reactions across the CAG repeat tract, that harbored a certain size of repeat product with a certain length. […] Length distributions were determined as follows: Small-pool PCR followed by Southern blot for analysis of CAG/CTG repeat length. […]

Q: What does the source list for naphthyridine-azaquinolone?
A: length variation at CASK, HTT (normal allele), and Mfd15 loci (40 days incubation with or without NA): Length variation was not observed; length distribution of non-mutant TBP repeats (38 and 34 repeats) (HD patient cells, 40 days): did not change the length distribution of the TBP repeats
